The values below come from patent US20170066759A1, “AROMATIC 5-MEMBERED HETEROCYCLIC DERIVATIVE HAVING TRPV4-INHIBITING ACTIVITY” (Shionogi & Co., Ltd., priority 2012, published 2017).

Series [1] concerns the target T1, CYP3A4 enzyme expressed in Escherichia coli (Homo sapiens, UniProt P08684).
T1 construct: host or cells: Escherichia coli
The experiment in a line: Test Example 5: CYP3A4 fluorescent MBI test. In kind it is in vitro ADME. The note with it: substrate 7-BFC, pre-reaction 30 minutes, compound 0.625-20 μmol/L. The method, then: CYP3A4 Fluorescent MBI Test
The CYP3A4 fluorescent MBI test is a test of investigating enhancement of CYP3A4 inhibition of a compound of the present invention by a metabolism reaction, and the test was performed using, as CYP3A4 enzyme expressed in Esherichia coli and employing, as an index, a reaction in which 7-benzyloxytrifluoromethylchmarin (7-BFC) is debenzylated by the CYP3A4 enzyme to produce a metabolite, 7-hydroxytrifluoromethylchmarin (HFC) emitting fluorescent light.
The reaction conditions were as follows: substrate, 5.6 μmol/L 7-BFC; pre-reaction time, […] or 30 minutes; reaction time, 15 minutes; reaction temperature, 25° C. […]
An enzyme in a K-Pi buffer (pH 7.4) and a solution of the compound of the present invention as a pre-reaction solution were added to a 96-well plate at the above composition of the pre-reaction. […] For the plate on which each index reaction had been performed, a fluorescent value of 7-HFC which is a metabolite was measured with a fluorescent plate reader. […]
Addition of only DMSO which is a solvent dissolving the compound of the present invention to a reaction system was adopted as a control (100%). Remaining activity (%) was calculated at each concentration of the compound of the present invention added as the solution, and IC50 was calculated by reverse-presumption by a logistic model using a concentration and an inhibition rate. […]

Series [2] relates to Salmonella typhimurium TA98 strain, TA100 strain. As to the kind of experiment: Test Example 7: FAT test (mutagenicity). The note with it: TA98 and TA100 strains, non-metabolism activating and metabolism activating conditions. The arrangement: key: (−) means that mutagenicity is negative; (+) is positive. The procedure: Mutagenicity of a compound of the present invention was evaluated.
[…] of freezing-stored rat typhoid bacillus (Salmonella typhimurium TA98 strain, TA100 strain) was inoculated on 10 mL of a liquid nutrient medium (2.5% Oxoid nutrient broth No. 2), and this was cultured before shaking at 37° C. for 10 hours. 9 mL of a bacterial solution of the TA98 strain was centrifuged (2000×g, 10 minutes) to remove a culturing solution. The bacteria was suspended in 9 mL of a Micro F buffer (K2HPO4: 3.5 g/L, KH2PO4: 1 g/L, (NH4)2SO4: 1 g/L, trisodium citrate dehydrate: 0.25 g/L, MgSO4*7H2O: 0.1 g/L), the suspension was added to 110 mL of an Exposure medium (Micro F buffer containing Biotin: 8 μg/mL, histidine: 0.2 μg/mL, glucose: 8 mg/mL). The TA100 strain was added to 120 mL of the Exposure medium relative to 3.16 mL of the bacterial solution to prepare a test bacterial solution. […] Since a well containing a bacterium which has obtained the proliferation ability by mutation of an amino acid (histidine) synthesizing enzyme gene turns from purple to yellow due to a pH change, the bacterium proliferation well which has turned to yellow in 48 wells per dose was counted, and was assessed by comparing with a negative control group. […]

Series [3] concerns the target T2, human TRPV4 (hTRPV4/CHO cells) (Homo sapiens, UniProt Q9HBA0).
T2 construct: expressed in transfected cells; host or cells: CHO-K1
As to the kind of experiment: Test Example 1: TRPV4 inhibitory activity (IC50 value), 4α-PDD stimulation, Fluo4 calcium fluorescence (FLIPR TETRA). In kind it is cell-based. The note with it: Test Example 1, 4α-PDD stimulation, read-out: Test 1 IC50.

Series [4] in a line: Test Example 11: BA test (oral absorbability). It counts as in vivo. The note with it: plasma; Mouse, oral administration 1 mg/kg. The method, then: Materials and methods for experiments to evaluate oral absorbability
(1) Experimental animals: rats or mice were used. (2) Breeding condition: rats or mice were allowed free access to solid feed and sterilized tap water (3) Setting of dosage and grouping: Oral administration and intravenous administration were performed with the predetermined dosage. Grouping was set as below. (Dosage varied depending on each compound)
Oral administration 1 to 30 mg/kg (n=2 to 3)
Intravenous administration 0.5 to 10 mg/kg (n=2 to 3)
(4) Preparation of administered liquid: Oral administration was performed using a solution or a suspension. Intravenous administration was performed after solubilization. (5) Method of Administration: In oral administration, compulsory administration to the stomach was conducted using an oral sonde. […] (6) Evaluation items: Blood was chronologically collected, and then concentration of a compound of the present invention in blood plasma was measured using a LC/MS/MS. […]
(7) Statistical analysis: With regard to a shift in plasma concentration of the compound of the present invention, the area under the plasma concentration-time curve (AUC) was calculated using a nonlinear least-squares program, WinNonlin (a registered trademark). Bioavailability (BA) was calculated from the AUCs of the oral administration group and the intravenous administration group. […]

By IC50 is commonly meant the concentration at which inhibition is half-maximal. Usually bioavailability stands for the share of a dose that reaches the circulation, judged against a reference dose that is usually intravenous.

Structures are written as SMILES.

T1 sequence (P08684 whole entry): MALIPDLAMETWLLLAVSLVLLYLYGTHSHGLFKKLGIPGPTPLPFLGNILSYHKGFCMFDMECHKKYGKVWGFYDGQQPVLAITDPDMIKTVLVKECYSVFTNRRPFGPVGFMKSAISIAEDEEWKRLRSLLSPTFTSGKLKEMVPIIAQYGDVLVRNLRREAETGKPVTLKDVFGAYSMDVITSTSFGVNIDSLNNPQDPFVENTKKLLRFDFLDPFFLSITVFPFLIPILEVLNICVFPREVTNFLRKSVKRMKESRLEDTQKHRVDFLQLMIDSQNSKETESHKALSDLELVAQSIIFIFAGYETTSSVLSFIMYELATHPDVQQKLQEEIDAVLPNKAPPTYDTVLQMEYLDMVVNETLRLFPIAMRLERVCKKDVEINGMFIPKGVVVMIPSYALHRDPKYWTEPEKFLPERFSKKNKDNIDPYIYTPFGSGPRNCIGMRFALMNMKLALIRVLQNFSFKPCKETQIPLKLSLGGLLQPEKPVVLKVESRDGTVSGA
T2 sequence (Q9HBA0 whole entry): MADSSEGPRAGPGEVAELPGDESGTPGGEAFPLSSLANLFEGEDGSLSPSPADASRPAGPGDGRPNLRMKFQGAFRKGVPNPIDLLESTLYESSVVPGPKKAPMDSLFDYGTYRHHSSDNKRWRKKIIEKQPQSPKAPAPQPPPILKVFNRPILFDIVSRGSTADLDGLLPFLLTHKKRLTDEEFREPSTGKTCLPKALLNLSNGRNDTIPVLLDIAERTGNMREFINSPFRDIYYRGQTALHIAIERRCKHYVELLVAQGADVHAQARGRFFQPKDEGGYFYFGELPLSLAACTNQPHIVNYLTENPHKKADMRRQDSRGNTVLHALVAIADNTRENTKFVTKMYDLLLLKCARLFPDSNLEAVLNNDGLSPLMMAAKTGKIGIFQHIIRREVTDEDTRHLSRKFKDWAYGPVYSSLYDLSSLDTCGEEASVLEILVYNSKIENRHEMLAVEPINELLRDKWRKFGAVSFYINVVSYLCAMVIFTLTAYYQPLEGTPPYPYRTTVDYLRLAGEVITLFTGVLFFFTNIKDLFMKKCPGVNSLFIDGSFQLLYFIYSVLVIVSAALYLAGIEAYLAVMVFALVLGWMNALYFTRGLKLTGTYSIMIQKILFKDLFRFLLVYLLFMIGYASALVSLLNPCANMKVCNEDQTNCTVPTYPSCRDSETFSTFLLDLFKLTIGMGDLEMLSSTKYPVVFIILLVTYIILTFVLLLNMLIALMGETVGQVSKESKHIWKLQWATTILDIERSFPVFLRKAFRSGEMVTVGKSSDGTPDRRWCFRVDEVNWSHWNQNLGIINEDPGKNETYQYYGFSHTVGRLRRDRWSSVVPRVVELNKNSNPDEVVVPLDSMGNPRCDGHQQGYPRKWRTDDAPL

Turning to `Cc1nc(CO)sc1-c1csc(NC(=O)Cn2cc(Cl)cn2)n1` [Compound I-131], the “CYP3A4 fluorescent MBI test: difference between IC50 values without and with preincubation” value in series [1] is “(−) (when the difference is 3 μM or less, this was defined as (−))”. Also, the “Mutagenicity (FAT test)” value in series [2] is “(−)”. In addition, the IC50 in series [3] was in the range of 100 to 1000 nM. The molecule further returned a bioavailability in series [4] of 61.4%.
